According to patent publication US9446039B2, “Aminoheteroaryl compounds as MTH1 inhibitors” (CEMM—FORSCHUNGSZENTRUM FÜR MOLEKULARE MEDIZIN GMBH, priority 2012, dated 2016):

How the values were obtained:
Assay type in all cases: binding
[1] = molecular target: T1, SW480 colon carcinoma cells lysate proteins (Homo sapiens, UniProt Q9Y2B0); settings: PreyGene CNPY2; SW480 cells
T1 sequence (Q9Y2B0 21-182): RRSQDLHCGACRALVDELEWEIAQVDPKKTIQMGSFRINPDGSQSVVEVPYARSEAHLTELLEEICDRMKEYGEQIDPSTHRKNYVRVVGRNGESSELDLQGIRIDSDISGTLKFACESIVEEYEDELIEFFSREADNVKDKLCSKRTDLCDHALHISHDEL

[2] = molecular target: SW480 colon carcinoma cells lysate proteins (Homo sapiens, UniProt Q16658); settings: PreyGene FSCN1
[3] = molecular target: SW480 colon carcinoma cells lysate proteins (Homo sapiens, UniProt P62826); settings: PreyGene RAN
[4] = molecular target: SW480 colon carcinoma cells lysate proteins (Homo sapiens, UniProt Q14974); settings: PreyGene KPNB1
SW480 colon carcinoma cells lysate proteins (Homo sapiens, UniProt Q14974), sequence (Q14974 whole entry): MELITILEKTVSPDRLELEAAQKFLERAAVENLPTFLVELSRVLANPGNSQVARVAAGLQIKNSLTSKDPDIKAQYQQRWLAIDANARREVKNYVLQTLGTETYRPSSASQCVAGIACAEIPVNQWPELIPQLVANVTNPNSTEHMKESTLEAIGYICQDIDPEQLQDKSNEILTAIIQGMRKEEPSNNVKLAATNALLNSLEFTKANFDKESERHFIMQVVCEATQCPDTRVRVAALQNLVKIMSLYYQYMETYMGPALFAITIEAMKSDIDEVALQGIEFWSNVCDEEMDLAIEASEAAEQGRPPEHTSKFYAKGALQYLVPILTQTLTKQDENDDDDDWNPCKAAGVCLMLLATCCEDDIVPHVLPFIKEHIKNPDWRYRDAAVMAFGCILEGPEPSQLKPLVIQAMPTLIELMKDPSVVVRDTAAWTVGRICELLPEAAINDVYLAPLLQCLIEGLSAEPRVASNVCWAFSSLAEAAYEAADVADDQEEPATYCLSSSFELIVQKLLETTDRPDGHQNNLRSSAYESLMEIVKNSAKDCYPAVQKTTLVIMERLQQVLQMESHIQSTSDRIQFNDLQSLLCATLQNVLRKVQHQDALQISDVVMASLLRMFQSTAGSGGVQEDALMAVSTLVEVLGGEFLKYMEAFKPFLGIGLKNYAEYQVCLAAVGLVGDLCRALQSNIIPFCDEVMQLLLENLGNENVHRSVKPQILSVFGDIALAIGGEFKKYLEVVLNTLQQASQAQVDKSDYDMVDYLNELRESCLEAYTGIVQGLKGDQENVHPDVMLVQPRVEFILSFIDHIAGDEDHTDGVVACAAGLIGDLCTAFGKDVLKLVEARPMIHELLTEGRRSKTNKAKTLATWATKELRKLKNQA

[5] = molecular target: T2, SW480 colon carcinoma cells lysate proteins (Homo sapiens, UniProt P29373); settings: PreyGene CRABP2
T2 sequence (P29373 1-138): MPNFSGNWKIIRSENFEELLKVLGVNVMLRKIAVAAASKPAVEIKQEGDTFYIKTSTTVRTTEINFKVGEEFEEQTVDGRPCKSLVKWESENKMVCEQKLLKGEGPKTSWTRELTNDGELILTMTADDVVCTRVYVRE

[6] = molecular target: SW480 colon carcinoma cells lysate proteins (Homo sapiens, UniProt Q00610); settings: PreyGene CLTC; SW480 cells
SW480 colon carcinoma cells lysate proteins (Homo sapiens, UniProt Q00610), sequence (Q00610 whole entry): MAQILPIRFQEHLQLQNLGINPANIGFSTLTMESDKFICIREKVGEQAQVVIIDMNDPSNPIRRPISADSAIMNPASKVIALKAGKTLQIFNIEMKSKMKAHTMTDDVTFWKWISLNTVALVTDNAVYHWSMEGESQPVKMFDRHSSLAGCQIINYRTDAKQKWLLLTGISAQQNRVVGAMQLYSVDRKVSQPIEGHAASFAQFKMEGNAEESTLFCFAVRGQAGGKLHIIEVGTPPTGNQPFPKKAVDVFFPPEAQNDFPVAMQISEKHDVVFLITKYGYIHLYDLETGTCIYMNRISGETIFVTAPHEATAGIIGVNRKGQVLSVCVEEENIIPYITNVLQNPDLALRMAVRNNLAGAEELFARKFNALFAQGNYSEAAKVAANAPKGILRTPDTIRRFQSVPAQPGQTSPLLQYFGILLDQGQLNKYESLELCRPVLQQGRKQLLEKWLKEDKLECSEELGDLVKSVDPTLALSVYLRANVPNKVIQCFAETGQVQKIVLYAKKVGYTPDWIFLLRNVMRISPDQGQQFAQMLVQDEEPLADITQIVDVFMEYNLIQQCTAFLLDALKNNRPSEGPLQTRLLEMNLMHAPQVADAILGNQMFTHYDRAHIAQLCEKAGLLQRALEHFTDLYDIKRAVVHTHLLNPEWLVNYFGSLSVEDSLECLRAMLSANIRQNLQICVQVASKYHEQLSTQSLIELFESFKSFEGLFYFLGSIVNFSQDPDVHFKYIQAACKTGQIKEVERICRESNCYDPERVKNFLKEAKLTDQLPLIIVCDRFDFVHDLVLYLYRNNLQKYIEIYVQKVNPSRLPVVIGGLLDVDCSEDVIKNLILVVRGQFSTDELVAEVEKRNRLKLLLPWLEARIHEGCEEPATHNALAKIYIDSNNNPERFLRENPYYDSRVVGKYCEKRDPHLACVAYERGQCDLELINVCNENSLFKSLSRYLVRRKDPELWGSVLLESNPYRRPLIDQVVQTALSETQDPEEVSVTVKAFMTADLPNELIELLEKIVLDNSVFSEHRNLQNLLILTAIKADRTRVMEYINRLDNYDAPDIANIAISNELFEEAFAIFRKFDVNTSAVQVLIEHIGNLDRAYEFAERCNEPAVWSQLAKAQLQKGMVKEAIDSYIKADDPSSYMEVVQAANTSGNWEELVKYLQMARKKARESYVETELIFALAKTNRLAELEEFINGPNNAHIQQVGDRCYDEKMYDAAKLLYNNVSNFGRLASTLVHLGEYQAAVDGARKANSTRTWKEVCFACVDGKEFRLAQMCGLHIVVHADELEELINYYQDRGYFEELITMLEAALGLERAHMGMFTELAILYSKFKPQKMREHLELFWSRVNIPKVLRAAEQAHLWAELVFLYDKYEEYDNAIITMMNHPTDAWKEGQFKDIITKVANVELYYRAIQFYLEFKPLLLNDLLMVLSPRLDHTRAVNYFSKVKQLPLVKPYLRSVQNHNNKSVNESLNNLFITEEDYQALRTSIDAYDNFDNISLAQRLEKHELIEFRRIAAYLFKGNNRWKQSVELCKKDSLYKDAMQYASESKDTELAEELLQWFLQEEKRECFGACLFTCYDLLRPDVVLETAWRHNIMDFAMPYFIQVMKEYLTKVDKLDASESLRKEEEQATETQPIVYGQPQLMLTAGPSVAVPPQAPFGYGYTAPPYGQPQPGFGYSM

[7] = molecular target: T3, SW480 colon carcinoma cells lysate proteins (Homo sapiens, UniProt O00764); settings: PreyGene PDXK
T3 sequence (O00764 1-312): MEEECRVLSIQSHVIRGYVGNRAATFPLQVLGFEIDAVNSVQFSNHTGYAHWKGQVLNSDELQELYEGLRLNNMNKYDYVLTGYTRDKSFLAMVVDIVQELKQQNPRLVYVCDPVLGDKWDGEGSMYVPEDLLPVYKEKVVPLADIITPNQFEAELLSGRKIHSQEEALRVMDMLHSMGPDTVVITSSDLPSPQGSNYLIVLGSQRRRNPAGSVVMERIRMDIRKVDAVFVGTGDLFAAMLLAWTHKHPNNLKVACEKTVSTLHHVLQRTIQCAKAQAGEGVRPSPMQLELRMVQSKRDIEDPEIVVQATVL

[8] = molecular target: SW480 colon carcinoma cells lysate proteins (Homo sapiens, UniProt Q9Y490); settings: PreyGene TLN1
[9] = molecular target: SW480 colon carcinoma cells lysate proteins (Homo sapiens, UniProt P30086); settings: PreyGene PEBP1
SW480 colon carcinoma cells lysate proteins (Homo sapiens, UniProt P30086), sequence (P30086 whole entry): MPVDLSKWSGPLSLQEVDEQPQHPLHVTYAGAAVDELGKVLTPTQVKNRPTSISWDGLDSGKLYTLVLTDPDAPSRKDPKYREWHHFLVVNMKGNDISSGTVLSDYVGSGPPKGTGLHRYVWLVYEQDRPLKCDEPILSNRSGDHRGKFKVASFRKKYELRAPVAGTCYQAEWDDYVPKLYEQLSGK

[10] = molecular target: T4, SW480 colon carcinoma cells lysate proteins (Homo sapiens, UniProt Q14847); settings: PreyGene LASP1; SW480 cells
T4 sequence (Q14847 1-261): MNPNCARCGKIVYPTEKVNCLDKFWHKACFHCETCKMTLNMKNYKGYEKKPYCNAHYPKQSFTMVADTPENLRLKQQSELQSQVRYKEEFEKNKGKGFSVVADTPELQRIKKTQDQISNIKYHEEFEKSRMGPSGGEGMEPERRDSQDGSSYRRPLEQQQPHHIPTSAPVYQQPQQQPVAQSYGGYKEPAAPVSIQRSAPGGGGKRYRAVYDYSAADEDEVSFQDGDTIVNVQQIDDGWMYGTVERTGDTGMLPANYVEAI

[11] = molecular target: T5, SW480 colon carcinoma cells lysate proteins (Homo sapiens, UniProt P68104); settings: PreyGene EEF1A1; SW480 cells
T5 sequence (P68104 1-462): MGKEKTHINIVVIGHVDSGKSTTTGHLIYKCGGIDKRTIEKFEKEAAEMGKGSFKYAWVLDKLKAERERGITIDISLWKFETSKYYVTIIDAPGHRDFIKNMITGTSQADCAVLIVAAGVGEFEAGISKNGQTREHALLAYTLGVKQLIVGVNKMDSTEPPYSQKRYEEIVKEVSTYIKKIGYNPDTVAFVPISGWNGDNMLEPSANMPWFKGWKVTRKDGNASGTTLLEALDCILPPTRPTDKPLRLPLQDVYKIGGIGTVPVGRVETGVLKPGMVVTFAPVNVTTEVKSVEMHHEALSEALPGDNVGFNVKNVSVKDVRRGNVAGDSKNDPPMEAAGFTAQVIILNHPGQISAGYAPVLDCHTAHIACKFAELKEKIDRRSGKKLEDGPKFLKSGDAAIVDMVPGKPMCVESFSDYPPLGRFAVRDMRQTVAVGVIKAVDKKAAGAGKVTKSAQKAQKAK

C[C@H](Oc1cc(-c2cnn(C3CCNCC3)c2)cnc1N)c1c(Cl)ccc(F)c1Cl [(5)-crizotinib]
AvgP [1]: 0
SC.Exp. 1-1 [1]: 1
SC.Exp. 1-2 [1]: 0
SC.Exp. 2-1 [1]: 0
SC.Exp. 2-2 [1]: 0
SC.Exp. Sum [1]: 1
AvgP [2]: 0.4044
SC.Exp. 1-1 [2]: 2
SC.Exp. 1-2 [2]: 3
SC.Exp. 2-1 [2]: 0
SC.Exp. 2-2 [2]: 0
Sum (SC.Exp.) [2]: 5
AvgP [3]: 0.3036
SC.Exp. 1-1 [3]: 5
SC.Exp. 1-2 [3]: 6
SC.Exp. 2-1 [3]: 0
SC.Exp. 2-2 [3]: 0
Sum (SC.Exp.) [3]: 11
AvgP [4]: 0.5773
SC.Exp. 1-1 [4]: 7
SC.Exp. 1-2 [4]: 6
SC.Exp. 2-1 [4]: 1
SC.Exp. 2-2 [4]: 0
Sum (SC.Exp.) [4]: 14
AvgP [5]: 0.2533
SC.Exp. 1-1 [5]: 4
SC.Exp. 1-2 [5]: 1
SC.Exp. 2-1 [5]: 0
SC.Exp. 2-2 [5]: 0
Sum (SC.Exp.) [5]: 5
AvgP [6]: 0
SC.Exp. 1-1 [6]: 16
SC.Exp. 1-2 [6]: 14
SC.Exp. 2-1 [6]: 5
SC.Exp. 2-2 [6]: 7
SC.Exp. Sum [6]: 42
AvgP [7]: 0.2207
SC.Exp. 1-1 [7]: 3
SC.Exp. 1-2 [7]: 0
SC.Exp. 2-1 [7]: 0
SC.Exp. 2-2 [7]: 0
Sum (SC.Exp.) [7]: 3
AvgP [8]: 0.4939
SC.Exp. 1-1 [8]: 7
SC.Exp. 1-2 [8]: 7
SC.Exp. 2-1 [8]: 0
SC.Exp. 2-2 [8]: 0
Sum (SC.Exp.) [8]: 14
AvgP [9]: 0.3266
SC.Exp. 1-1 [9]: 3
SC.Exp. 1-2 [9]: 3
SC.Exp. 2-1 [9]: 0
SC.Exp. 2-2 [9]: 0
Sum (SC.Exp.) [9]: 6
AvgP [10]: 0
SC.Exp. 1-1 [10]: 0
SC.Exp. 1-2 [10]: 1
SC.Exp. 2-1 [10]: 0
SC.Exp. 2-2 [10]: 0
SC.Exp. Sum [10]: 1
AvgP [11]: 0
SC.Exp. 1-1 [11]: 23
SC.Exp. 1-2 [11]: 21
SC.Exp. 2-1 [11]: 8
SC.Exp. 2-2 [11]: 8
SC.Exp. Sum [11]: 60
